{"source": "paper PMC5748433", "about": "“Study on the effect of EMD386088, a 5-HT6 receptor partial agonist, in enhancing the anti-immobility action of some antidepressants in rats” (Naunyn-Schmiedeberg's Archives of Pharmacology, 2017)", "key": {"GABAA": {"tested_on": "GABAA", "design": "method as in Jastrzębska-Więsek et al. [2013]", "settings": "ref Jastrzębska-Więsek et al. [2013]; cited from earlier work"}, "rats [1]": {"tested_on": "rats", "assay": "Modified forced swim test (FST) in rats", "assay_type": "in vivo, rat", "settings": "EMD386088 alone 2.5 mg/kg i.p.", "experimental": "[…]. All drugs were dissolved in distilled water immediately before administration in a volume of 2 mL/kg. All the compounds were administered intraperitoneally (i.p.). […] Control animals received vehicle according to the same schedule.\nThe experiment was carried out according to the modified by Detke et al. ([1995]) method of Porsolt et al. ([1978]). On the first day of an experiment, the animals were gently individually placed in Plexiglas cylinders (40 cm high, 18 cm in diameter) containing 30 cm of water maintained at 23–25 °C for 15 min. On removal from water, the rats were placed for 30 min in a Plexiglas box under 60-W bulb to dry. On the following day (24 h later), the rats were re-placed in the cylinder and the total duration of immobility, swimming, and climbing was recorded during the whole 5-min test period. The swimming behavior entailed active swimming motions, e.g., moving horizontally around in the cylinder. Climbing activity consisted of upward directed movements of the forepaws along the side of the swim chamber, and immobility was assigned when no additional activity was observed other than that necessary to keep the rat’s head above the water (Detke et al. [1995]). Fresh water was used for each animal.\n(§1) The data of behavioral studies were evaluated using two-way analysis of variance (ANOVA) followed by Bonferroni’s post hoc test, p < 0.05 was considered significant."}, "recombinant human CYP3A4": {"target": "recombinant human CYP3A4 (Homo sapiens, UniProt P08684)", "sequence (P08684 whole entry)": "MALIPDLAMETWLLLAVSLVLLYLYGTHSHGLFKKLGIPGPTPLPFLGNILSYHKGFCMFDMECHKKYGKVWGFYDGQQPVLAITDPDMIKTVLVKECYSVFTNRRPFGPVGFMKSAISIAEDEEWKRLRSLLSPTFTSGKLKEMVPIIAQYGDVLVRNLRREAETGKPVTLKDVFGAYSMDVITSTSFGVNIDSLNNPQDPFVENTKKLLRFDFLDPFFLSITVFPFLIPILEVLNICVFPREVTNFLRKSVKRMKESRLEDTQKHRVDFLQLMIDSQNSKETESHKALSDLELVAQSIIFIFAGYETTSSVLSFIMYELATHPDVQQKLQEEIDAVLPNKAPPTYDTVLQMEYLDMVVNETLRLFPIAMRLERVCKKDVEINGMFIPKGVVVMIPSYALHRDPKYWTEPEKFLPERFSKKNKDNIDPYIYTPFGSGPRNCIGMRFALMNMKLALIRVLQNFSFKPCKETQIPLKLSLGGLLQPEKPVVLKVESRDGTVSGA", "settings": "recombinant human CYP3A4, P450-Glo, 0.025 to 25 μM", "method": "The enzymatic reactions were performed in white polystyrene, flat-bottom Nunc™ MicroWell™ 96-Well Microplates (Thermo Scientific, Waltham, MA USA). The luminescence signal was measured with a microplate reader in luminescence mode (EnSpire, PerkinElmer, Waltham, MA USA)."}, "rats [2]": {"tested_on": "rats", "assay": "Open field (OF) test in rats, locomotor/exploratory activity", "assay_type": "in vivo, rat", "settings": "2.5 mg/kg i.p. 30 min before test, 5-min session, mean ± SEM, 2.5 mg/kg", "experimental": "All drugs were dissolved in distilled water immediately before administration in a volume of 2 mL/kg. All the compounds were administered intraperitoneally (i.p.). […] Control animals received vehicle according to the same schedule.\nThe experiment was performed using Motor Monitor System (Campden Instruments, Ltd., UK) consisted of two SmartFrame Open Field stations (40 × 40 × 38 cm) with 16 × 16 beams, located in sound attenuating chambers and connected to PC software by control chassis. Individual vehicle- or drug-injected animals were gently placed in the center of the station. An automated motor monitor system recorded ambulation (the number of crossings in X and Y axis), the number of rearing episodes, and total distance covered by a rat for 5 min.\nas §1"}, "opioid μ receptors": {"tested_on": "opioid μ receptors", "design": "method as in Jastrzębska-Więsek et al. [2013]", "settings": "ref Jastrzębska-Więsek et al. [2013]; cited from earlier work"}, "[3]": {"tested_on": "dopamine transporter (DAT)", "design": "method as in Jastrzębska-Więsek et al. [2016]", "settings": "functional in vitro study; ref Jastrzębska-Więsek et al. [2016]; cited from earlier work"}, "5-HT6 receptor": {"tested_on": "5-HT6 receptor", "settings": "cited from earlier work"}, "[4]": {"tested_on": "serotonin (5-HT) transporter", "design": "method as in Jastrzębska-Więsek et al. [2013]", "settings": "ref Jastrzębska-Więsek et al. [2013]; cited from earlier work"}, "α2-adrenoceptors": {"tested_on": "α2-adrenoceptors", "design": "method as in Jastrzębska-Więsek et al. [2013]", "settings": "ref Jastrzębska-Więsek et al. [2013]; cited from earlier work"}, "β1-adrenoceptors": {"tested_on": "β1-adrenoceptors", "design": "method as in Jastrzębska-Więsek et al. [2013]", "settings": "ref Jastrzębska-Więsek et al. [2013]; cited from earlier work"}, "dopamine D3": {"tested_on": "dopamine D3", "design": "method as in Jastrzębska-Więsek et al. [2013]", "settings": "ref Jastrzębska-Więsek et al. [2013]; cited from earlier work"}, "α1-adrenoceptors": {"tested_on": "α1-adrenoceptors", "design": "method as in Jastrzębska-Więsek et al. [2013]", "settings": "ref Jastrzębska-Więsek et al. [2013]; cited from earlier work"}, "[5]": {"assay": "Metabolic stability in rat liver microsomes (RLMs)", "assay_type": "in vitro ADME", "experimental": "The in silico study was performed by MetaSite 5.1.1 provided by Molecular Discovery Ltd. The highest metabolism probability sites and the prediction of the structures of metabolites were analyzed during this study by liver computational model (Cruciani et al. [2005]).\nCommercial, pooled, rat liver microsomes (RLMs) were purchased from Sigma-Aldrich (St. Louis, USA). The biotransformations were carried out using 1 mg/mL of RLMs in 200 μL of reaction buffer containing 0.1 M Tris-HCl (pH 7.4) and EMD386088 with final […] 50 μM. The reaction mixture was preincubated at 37 °C for 5 min and then, the reaction was initiated by adding 50 μL of NADPH Regeneration System (Promega, Madison, WI, USA). The reaction was terminated after 30 or 120 min by the addition of 200 μL of cold methanol. The mixture was next centrifuged at 14000 rpm for 15 min and the UPLC/MS analysis of the supernatant was performed. Mass spectra was recorded on UPLC/MS system consisted of a Waters Acquity UPLC (Waters, Milford, USA), coupled to a Waters TQD mass spectrometer (electrospray ionization mode ESI-tandem quadrupole)."}, "rats [6]": {"tested_on": "rats", "design": "method as in Jastrzębska-Więsek et al. [2015]", "settings": "EMD386088 alone 5 mg/kg i.p., ref Jastrzębska-Więsek et al. [2015]; cited from earlier work"}}, "note": "Values joined by “and” are separate entries in the source; they are usually repeats but may differ in a detail not shown here. Equal entries are not always repeated.", "data": [{"smiles": "Cc1[nH]c2ccc(Cl)cc2c1C1=CCNCC1.Cl", "note": "[EMD386088, 5-chloro-2-methyl-3-(1,2,3,6-tetrahydro-4-pyridinyl)-1H-indole hydrochloride]", "values": [{"measurement": "affinity for GABAA", "setting": "GABAA", "result": "no affinity"}, {"measurement": "activity in the FST", "setting": "rats [1]", "result": "not active"}, {"measurement": "influence on CYP3A4 activity", "setting": "recombinant human CYP3A4", "result": "did not influence on CYP3A4 activity"}, {"measurement": "Exploratory activity Ambulation X", "setting": "rats [2]", "result": "261 ± 29 and 262 ± 28 and 262 ± 35 and 263 ± 28"}, {"measurement": "Exploratory activity Ambulation Y", "setting": "rats [2]", "result": "261 ± 31 and 267 ± 37 and 262 ± 23"}, {"measurement": "Exploratory activity Rearings", "setting": "rats [2]", "result": "90 ± 3 and 91 ± 4 and 89 ± 4 and 92 ± 9"}, {"measurement": "Exploratory activity Total distance (cm)", "setting": "rats [2]", "result": "2677 ± 232 cm and 2721 ± 196 cm and 2644 ± 220 cm and 2722 ± 145 cm"}, {"measurement": "affinity for opioid μ receptors", "setting": "opioid μ receptors", "result": "no affinity"}, {"measurement": "affinity for dopamine transporter (DAT)", "setting": "[3]", "result": "significant affinity"}, {"measurement": "5-HT6 receptor functional profile", "setting": "5-HT6 receptor; in vitro, ref Jastrzębska-Więsek et al. [2013]", "result": "potent 5-HT6 receptor partial agonist"}, {"measurement": "EC50", "setting": "5-HT6 receptor; read-out: EC50 5-HT6 receptor agonist, ref Mattsson et al. ([2005])", "result": 1, "unit": "nM"}, {"measurement": "affinity for serotonin (5-HT) transporter", "setting": "[4]", "result": "no affinity"}, {"measurement": "affinity for α2-adrenoceptors", "setting": "α2-adrenoceptors", "result": "no affinity"}, {"measurement": "affinity for β1-adrenoceptors", "setting": "β1-adrenoceptors", "result": "no affinity"}, {"measurement": "affinity for dopamine D3", "setting": "dopamine D3", "result": "no affinity"}, {"measurement": "affinity for α1-adrenoceptors", "setting": "α1-adrenoceptors", "result": "no affinity"}, {"measurement": "compound metabolized in the presence of RLMs", "setting": "[5]; RLMs 1 mg/mL, EMD386088 50 μM, after 120 min, 37 °C", "result": "~40", "unit": "%"}, {"measurement": "main metabolic pathway", "setting": "[5]; in silico (MetaSite) and in vitro (RLMs) studies", "result": "dehydrogenation of tetrahydropyridine moiety"}, {"measurement": "antidepressant-like effect in the FST", "setting": "rats [6]", "result": "exerts an antidepressant-like effect"}]}]}
